Experimental data from patent US12528815B2, “5-amino-8-(4-pyridyl)-[1,2,4]triazolo[4,3-c]pyrimidin-3-one compounds for use against cancer” (Nxera Pharma UK Limited, priority 2020, dated 2026).

Legend:
[1] = biological target: T1, human adenosine A2A receptor (Homo sapiens, UniProt P29274); assay: Inhibition binding assay, human adenosine A2A receptor membranes, [3H]ZM241385; conditions: 1 nM [3H]ZM241385, HEK293-hA2A membranes, 25° C., 1 h; IC50 converted to Ki with Cheng-Prusoff; read-out: A2A pKi (converted)
T1 construct: expressed in transfected cells; host or cells: HEK293 cells infected with BacMam
Description: (§1) Inhibition binding assays were performed using 0.2 μg of membranes prepared from HEK293 cells infected with BacMam human adenosine A2A receptor or 1.4 μg of membranes prepared from HEK293 cells infected with BacMam human adenosine A1 receptor. Membranes were incubated in 50 mM Tris-HCl (HEK293-hA2A; pH 7.4) or 50 mM Tris-HCl, 100 mM NaCl, 10 mM MgCl2 (CHO-hA1; pH 7.4) in the presence of varying concentrations of test compound and 1 nM [^3H]ZM241385 (HEK293-hA2A) or [^3H]DPCPX (CHO-hA1) at 25° C. for 1 h. The assay was then terminated by rapid filtration onto GF/B grade Unifilter plates using a TomTec cell harvester, followed by 5×0.5 ml washes with ddH2O. Nonspecific binding was defined in the presence of 1 μM CGS15943 (HEK293-hA2A) or 1 μM DPCPX (CHO-hA1). Bound radioactivity was determined by liquid scintillation counting and inhibition curves were analysed using a four-parameter logistic equation. IC50 values were converted to Ki values with the Cheng-Prusoff equation using a KD value derived from saturation binding studies.

[2] = biological target: T2, human adenosine A1 receptor (Homo sapiens, UniProt P30542); assay: Inhibition binding assay, human adenosine A1 receptor membranes, [3H]DPCPX; conditions: 1 nM [3H]DPCPX, 25° C., 1 h; IC50 converted to Ki with Cheng-Prusoff; read-out: A1 pKi (converted)
T2 construct: expressed in transfected cells; host or cells: HEK293 cells infected with BacMam (the same paragraph also labels the preparation CHO-hA1)
T2 sequence (P30542 1-326): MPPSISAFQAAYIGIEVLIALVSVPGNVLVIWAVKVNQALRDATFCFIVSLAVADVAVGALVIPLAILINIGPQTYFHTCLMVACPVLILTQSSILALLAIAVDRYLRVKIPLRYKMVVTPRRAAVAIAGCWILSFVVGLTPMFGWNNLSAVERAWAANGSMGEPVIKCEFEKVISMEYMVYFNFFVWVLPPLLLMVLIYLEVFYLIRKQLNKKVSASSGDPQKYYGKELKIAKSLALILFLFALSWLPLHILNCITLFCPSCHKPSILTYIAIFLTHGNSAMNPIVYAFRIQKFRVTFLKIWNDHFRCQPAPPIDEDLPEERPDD
Description: as §1

T1 sequence (P29274 whole entry): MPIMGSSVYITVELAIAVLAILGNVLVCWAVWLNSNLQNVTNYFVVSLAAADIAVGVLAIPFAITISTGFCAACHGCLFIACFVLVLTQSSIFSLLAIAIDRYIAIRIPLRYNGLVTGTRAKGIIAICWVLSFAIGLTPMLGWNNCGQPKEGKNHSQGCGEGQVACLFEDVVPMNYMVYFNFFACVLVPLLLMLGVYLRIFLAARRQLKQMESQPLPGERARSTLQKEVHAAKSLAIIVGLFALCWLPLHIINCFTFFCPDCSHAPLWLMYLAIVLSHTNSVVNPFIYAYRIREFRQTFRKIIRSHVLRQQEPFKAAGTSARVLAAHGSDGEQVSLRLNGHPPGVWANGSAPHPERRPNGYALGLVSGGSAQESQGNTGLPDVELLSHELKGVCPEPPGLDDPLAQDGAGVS

SMILES | Ki [1] | Ki [2]
Cc1cc(-c2c(-c3ccccc3)nc(N)n3c(=O)n(Cc4ccc(F)c(N)n4)nc23)cc(C)n1 [Example 1-36, 5-amino-2-[(6-amino-5-fluoro-2-pyridyl)methyl]-8-(2,6-dimethyl-4-pyridyl)-7-phenyl-[1,2,4]triazolo[4,3-c]pyrimidin-3-one] | 0.251 nM | 100 nM
Cc1cc(-c2c(-c3ccccc3)nc(N)n3c(=O)n(CCN(C)CC(=O)N4CCC(O)CC4)nc23)cc(C)n1 [Example 2-107, 5-amino-8-(2,6-dimethyl-4-pyridyl)-2-[2-[[2-(4-hydroxy-1-piperidyl)-2-oxo-ethyl]-methyl-amino]ethyl]-7-phenyl-[1,2,4]triazolo[4,3-c]pyrimidin-3-one] | 63.1 nM | > 3160 nM
Cc1cc(-c2c(-c3ccccc3)nc(N)n3c(=O)n(CC4(Cc5ccccc5)CCNCC4)nc23)cc(C)n1 [Example 1-102, 5-amino-2-[(4-benzyl-4-piperidyl)methyl]-8-(2,6-dimethyl-4-pyridyl)-7-phenyl-[1,2,4]triazolo[4,3-c]pyrimidin-3-one] | 0.501 nM | 12.6 nM
Cc1cc(-c2c(-c3ccccc3)nc(N)n3c(=O)n(C4CCCNC4)nc23)cc(C)n1 (stereo not shown) [Example 2-55, 5-amino-8-(2,6-dimethyl-4-pyridyl)-7-phenyl-2-(3-piperidyl)-[1,2,4]triazolo[4,3-c]pyrimidin-3-one] | 251 nM | > 3160 nM
Cc1cc(-c2c(-c3ccccc3)nc(N)n3c(=O)n(CCNC4CCCC(C(=O)NC5CC5)C4)nc23)cc(C)n1 (stereo not shown) [Example 2-108, 3-[2-[5-amino-8-(2,6-dimethyl-4-pyridyl)-3-oxo-7-phenyl-[1,2,4]triazolo[4,3-c]pyrimidin-2-yl]ethylamino]-N-cyclopropyl-cyclohexanecarboxamide] | 200 nM | > 3980 nM
Nc1nc(-c2ccccc2)c(-c2cc(Cl)nc(CO)c2)c2nn(Cc3ccc(F)cn3)c(=O)n12 [Example 1-69, 5-amino-8-[2-chloro-6-(hydroxymethyl)-4-pyridyl]-2-[(5-fluoro-2-pyridyl)methyl]-7-phenyl-[1,2,4]triazolo[4,3-c]pyrimidin-3-one] | 0.794 nM | 251 nM
CCn1nc2c(-c3cc(C)nc(C)c3)c(-c3ccccc3)nc(N)n2c1=O [Example 2-3, 5-amino-8-(2,6-dimethyl-4-pyridyl)-2-ethyl-7-phenyl-[1,2,4]triazolo[4,3-c]pyrimidin-3-one] | 20 nM | 631 nM
Cc1cc(-c2c(-c3ccccc3)nc(N)n3c(=O)n(C(CNCC(F)(F)F)c4ccccc4)nc23)cc(C)n1 (stereo not shown) [Example 1-31, 5-amino-8-(2,6-dimethyl-4-pyridyl)-7-phenyl-2-[1-phenyl-2-(2,2,2-trifluoroethylamino)ethyl]-[1,2,4]triazolo[4,3-c]pyrimidin-3-one] | 10 nM | 316 nM
CC1=NN(c2cccc(NCCn3nc4c(-c5cc(C)nc(C)c5)c(-c5ccccc5)nc(N)n4c3=O)c2)C(=O)C1 [Example 1-98, 5-amino-8-(2,6-dimethyl-4-pyridyl)-2-[2-[3-(3-methyl-5-oxo-4H-pyrazol-1-yl)anilino]ethyl]-7-phenyl-[1,2,4]triazolo[4,3-c]pyrimidin-3-one] | 79.4 nM | 1000 nM
Cc1cc(-c2c(-c3ccccc3)nc(N)n3c(=O)n(CC4CCNCC4)nc23)cc(C)n1 [Example 2-68, 5-amino-8-(2,6-dimethyl-4-pyridyl)-7-phenyl-2-(4-piperidylmethyl)-[1,2,4]triazolo[4,3-c]pyrimidin-3-one] | 398 nM | > 3160 nM
Cc1cc(-c2c(-c3ccccc3)nc(N)n3c(=O)n(CCc4ccc(O)cc4)nc23)cc(C)n1 [Example 1-82, 5-amino-8-(2,6-dimethyl-4-pyridyl)-2-[2-(4-hydroxyphenyl)ethyl]-7-phenyl-[1,2,4]triazolo[4,3-c]pyrimidin-3-one] | 12.6 nM | 251 nM
